Data published in patent US10245261B2, “Substituted indol-5-ol derivatives and their therapeutic applications” (NantBioScience, Inc., priority 2013, dated 2019).

How the values were obtained:
Assay in all cases: KinaseProfiler kinase assay
Type in all cases: biochemical
[1] = molecular target: CDK2/cyclinA(h) (Homo sapiens, UniProt P24941)
Summary of the method: (§1)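 Each enzyme was assayed radiometrically: 40 min room-temperature reaction with [γ-33P]ATP and 10 mM Mg acetate, acid-stopped, filtered, scintillation-counted.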

[2] = molecular target: Rsk1(r) (Rattus norvegicus, UniProt Q63531)
Summary of the method: as §1

[3] = molecular target: Snk(h) (Homo sapiens, UniProt Q9NYY3)
Summary of the method: as §1

[4] = molecular target: Met(Y1248D)(h) (Homo sapiens, UniProt P08581, Y1230D)
Summary of the method: as §1

[5] = molecular target: Arg(m) (Mus musculus, UniProt Q4JIM5)
Summary of the method: as §1

[6] = molecular target: PI3 Kinase (p110β/p85β)(m) (Mus musculus, UniProt Q8BTI9)
Summary of the method: as §1

[7] = molecular target: Hck(h) activated (Homo sapiens, UniProt P08631)
Summary of the method: as §1

[8] = molecular target: NEK6(h) (Homo sapiens, UniProt Q9HC98)
Summary of the method: as §1

[9] = molecular target: Rsk4(h) (Homo sapiens, UniProt Q9UK32)
Summary of the method: as §1

[10] = molecular target: MKK4(m) (Mus musculus, UniProt P47809)
Summary of the method: as §1

[11] = molecular target: PKCζ(h) (Homo sapiens, UniProt Q05513)
Summary of the method: as §1

[12] = molecular target: MAPK2(h) (Homo sapiens, UniProt P28482)
Summary of the method: as §1

[13] = molecular target: Rse(h) (Homo sapiens, UniProt Q06418)
Sequence of Rse(h) (Q06418 41-890): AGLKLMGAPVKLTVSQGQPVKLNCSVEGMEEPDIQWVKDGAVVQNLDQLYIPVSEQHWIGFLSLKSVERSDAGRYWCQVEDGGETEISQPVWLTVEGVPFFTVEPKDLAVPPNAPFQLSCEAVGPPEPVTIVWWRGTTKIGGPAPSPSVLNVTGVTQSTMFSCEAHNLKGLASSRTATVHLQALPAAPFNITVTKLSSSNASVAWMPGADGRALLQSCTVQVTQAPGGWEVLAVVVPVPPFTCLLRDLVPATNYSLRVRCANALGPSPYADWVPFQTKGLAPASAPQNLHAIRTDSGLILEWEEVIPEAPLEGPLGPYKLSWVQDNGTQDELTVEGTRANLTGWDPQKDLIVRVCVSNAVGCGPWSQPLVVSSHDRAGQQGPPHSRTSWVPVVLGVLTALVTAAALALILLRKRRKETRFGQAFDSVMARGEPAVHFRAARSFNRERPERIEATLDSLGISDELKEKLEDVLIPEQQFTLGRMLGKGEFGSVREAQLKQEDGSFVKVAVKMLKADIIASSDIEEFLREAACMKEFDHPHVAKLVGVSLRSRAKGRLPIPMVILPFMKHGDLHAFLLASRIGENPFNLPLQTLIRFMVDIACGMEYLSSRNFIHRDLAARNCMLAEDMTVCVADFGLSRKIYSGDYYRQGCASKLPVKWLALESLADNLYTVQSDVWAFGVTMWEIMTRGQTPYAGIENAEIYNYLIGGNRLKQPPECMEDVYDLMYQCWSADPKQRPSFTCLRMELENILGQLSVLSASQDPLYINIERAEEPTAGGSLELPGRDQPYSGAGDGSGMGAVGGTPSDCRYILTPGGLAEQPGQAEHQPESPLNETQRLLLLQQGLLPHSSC
Summary of the method: as §1

[14] = molecular target: CSK(h) (Homo sapiens, UniProt P41240)
Summary of the method: as §1

[15] = molecular target: mTOR/FKBP12(h) (Homo sapiens, UniProt P42345)
Summary of the method: as §1

[16] = molecular target: STK33(h) (Homo sapiens, UniProt Q9BYT3)
Summary of the method: as §1

[17] = molecular target: IGF-1R(h) (Homo sapiens, UniProt P08069)
Summary of the method: as §1

[18] = molecular target: MSK2(h) (Homo sapiens, UniProt O75676)
Sequence of MSK2(h) (O75676 whole entry): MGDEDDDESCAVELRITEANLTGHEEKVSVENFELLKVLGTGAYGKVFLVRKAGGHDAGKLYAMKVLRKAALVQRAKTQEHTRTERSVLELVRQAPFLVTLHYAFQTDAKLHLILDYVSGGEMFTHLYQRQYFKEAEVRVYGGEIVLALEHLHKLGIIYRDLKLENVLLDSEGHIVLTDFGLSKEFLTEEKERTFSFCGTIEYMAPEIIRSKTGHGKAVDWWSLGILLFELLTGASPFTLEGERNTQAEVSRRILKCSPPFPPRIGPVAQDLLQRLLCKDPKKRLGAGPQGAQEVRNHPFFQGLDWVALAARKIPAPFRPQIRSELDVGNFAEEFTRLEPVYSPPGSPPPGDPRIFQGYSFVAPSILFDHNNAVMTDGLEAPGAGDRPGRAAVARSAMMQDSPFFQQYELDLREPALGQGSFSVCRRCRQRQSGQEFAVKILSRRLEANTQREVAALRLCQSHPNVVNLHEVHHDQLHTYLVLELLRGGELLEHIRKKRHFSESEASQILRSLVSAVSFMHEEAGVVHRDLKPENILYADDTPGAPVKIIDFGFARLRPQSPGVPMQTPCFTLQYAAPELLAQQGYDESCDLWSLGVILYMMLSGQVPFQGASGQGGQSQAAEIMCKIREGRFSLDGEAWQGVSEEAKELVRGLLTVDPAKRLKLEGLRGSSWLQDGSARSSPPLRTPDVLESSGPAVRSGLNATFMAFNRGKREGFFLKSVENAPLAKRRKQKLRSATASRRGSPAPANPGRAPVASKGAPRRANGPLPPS
Summary of the method: as §1

[19] = molecular target: AMPKα2(h) (Homo sapiens, UniProt P54646)
Sequence of AMPKα2(h) (P54646 whole entry): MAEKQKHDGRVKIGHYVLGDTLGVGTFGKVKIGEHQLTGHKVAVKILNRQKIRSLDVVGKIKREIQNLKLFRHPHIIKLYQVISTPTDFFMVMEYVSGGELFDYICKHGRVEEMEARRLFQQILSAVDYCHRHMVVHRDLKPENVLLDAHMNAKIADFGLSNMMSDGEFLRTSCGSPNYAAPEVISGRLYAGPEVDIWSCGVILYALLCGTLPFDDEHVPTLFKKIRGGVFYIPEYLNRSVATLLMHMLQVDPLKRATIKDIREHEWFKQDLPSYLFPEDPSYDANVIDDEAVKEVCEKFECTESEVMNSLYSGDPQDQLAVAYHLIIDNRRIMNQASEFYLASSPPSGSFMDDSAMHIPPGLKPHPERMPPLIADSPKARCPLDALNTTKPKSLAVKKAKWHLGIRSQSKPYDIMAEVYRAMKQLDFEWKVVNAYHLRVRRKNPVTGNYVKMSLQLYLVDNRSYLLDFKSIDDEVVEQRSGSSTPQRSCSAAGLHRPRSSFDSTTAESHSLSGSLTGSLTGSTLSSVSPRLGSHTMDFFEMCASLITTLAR
Sequence of AMPKα2(h) (Q9Y478 whole entry partner): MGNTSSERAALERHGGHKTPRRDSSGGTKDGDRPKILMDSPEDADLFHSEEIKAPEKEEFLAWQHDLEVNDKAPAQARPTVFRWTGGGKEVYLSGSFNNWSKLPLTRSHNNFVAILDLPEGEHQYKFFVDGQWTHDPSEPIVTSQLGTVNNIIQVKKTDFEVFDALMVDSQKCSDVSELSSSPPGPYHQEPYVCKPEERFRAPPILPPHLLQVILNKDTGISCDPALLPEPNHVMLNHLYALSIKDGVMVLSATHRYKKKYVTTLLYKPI
Sequence of AMPKα2(h) (P54619 whole entry partner): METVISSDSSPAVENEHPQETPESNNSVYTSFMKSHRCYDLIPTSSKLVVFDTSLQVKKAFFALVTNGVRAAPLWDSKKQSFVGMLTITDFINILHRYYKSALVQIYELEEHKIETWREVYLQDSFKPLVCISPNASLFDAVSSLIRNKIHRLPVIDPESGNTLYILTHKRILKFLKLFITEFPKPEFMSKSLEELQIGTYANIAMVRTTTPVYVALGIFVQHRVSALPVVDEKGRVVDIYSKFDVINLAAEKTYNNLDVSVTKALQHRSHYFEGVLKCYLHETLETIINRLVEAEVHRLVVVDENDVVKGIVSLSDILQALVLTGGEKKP
Summary of the method: as §1

[20] = molecular target: Syk(h) (Homo sapiens, UniProt P43405)
Summary of the method: as §1

[21] = molecular target: ASK1(h) (Homo sapiens, UniProt Q99683)
Summary of the method: as §1

[22] = molecular target: Plk1(h) (Homo sapiens, UniProt P53350)
Summary of the method: as §1

[23] = molecular target: MEK1(h) (Homo sapiens, UniProt Q02750)
Summary of the method: as §1

[24] = molecular target: EphA4(h) (Homo sapiens, UniProt P54764)
Summary of the method: as §1

[25] = molecular target: EphA8(h) (Homo sapiens, UniProt P29322)
Summary of the method: as §1

[26] = molecular target: FAK(h) (Homo sapiens, UniProt Q05397)
Summary of the method: as §1

[27] = molecular target: Rsk1(h) (Homo sapiens, UniProt Q15418)
Summary of the method: as §1

[28] = molecular target: MARK1(h) (Homo sapiens, UniProt Q9P0L2)
Summary of the method: as §1

[29] = molecular target: CDK5/p35(h) (Homo sapiens, UniProt Q00535)
Sequence of CDK5/p35(h) (Q00535 whole entry): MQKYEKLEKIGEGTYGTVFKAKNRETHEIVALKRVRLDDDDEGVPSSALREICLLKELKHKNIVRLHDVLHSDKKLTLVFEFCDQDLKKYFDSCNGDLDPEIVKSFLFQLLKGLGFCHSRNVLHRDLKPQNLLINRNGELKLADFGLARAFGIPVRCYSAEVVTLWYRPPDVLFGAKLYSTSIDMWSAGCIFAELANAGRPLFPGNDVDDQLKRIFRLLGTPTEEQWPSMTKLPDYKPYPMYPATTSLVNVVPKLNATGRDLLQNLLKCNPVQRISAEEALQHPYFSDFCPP
Sequence of CDK5/p35(h) (Q15078 whole entry partner): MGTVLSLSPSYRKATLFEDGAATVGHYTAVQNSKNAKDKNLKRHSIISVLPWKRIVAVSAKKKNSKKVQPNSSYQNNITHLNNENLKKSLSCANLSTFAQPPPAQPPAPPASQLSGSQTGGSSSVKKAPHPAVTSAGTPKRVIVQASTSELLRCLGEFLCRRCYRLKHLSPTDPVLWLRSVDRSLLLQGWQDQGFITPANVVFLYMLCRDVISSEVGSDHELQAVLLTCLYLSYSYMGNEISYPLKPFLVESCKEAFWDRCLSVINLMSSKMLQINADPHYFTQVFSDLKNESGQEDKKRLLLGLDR
Summary of the method: as §1

[30] = molecular target: PKG1α(h) (Homo sapiens, UniProt Q13976)
Sequence of PKG1α(h) (Q13976 whole entry): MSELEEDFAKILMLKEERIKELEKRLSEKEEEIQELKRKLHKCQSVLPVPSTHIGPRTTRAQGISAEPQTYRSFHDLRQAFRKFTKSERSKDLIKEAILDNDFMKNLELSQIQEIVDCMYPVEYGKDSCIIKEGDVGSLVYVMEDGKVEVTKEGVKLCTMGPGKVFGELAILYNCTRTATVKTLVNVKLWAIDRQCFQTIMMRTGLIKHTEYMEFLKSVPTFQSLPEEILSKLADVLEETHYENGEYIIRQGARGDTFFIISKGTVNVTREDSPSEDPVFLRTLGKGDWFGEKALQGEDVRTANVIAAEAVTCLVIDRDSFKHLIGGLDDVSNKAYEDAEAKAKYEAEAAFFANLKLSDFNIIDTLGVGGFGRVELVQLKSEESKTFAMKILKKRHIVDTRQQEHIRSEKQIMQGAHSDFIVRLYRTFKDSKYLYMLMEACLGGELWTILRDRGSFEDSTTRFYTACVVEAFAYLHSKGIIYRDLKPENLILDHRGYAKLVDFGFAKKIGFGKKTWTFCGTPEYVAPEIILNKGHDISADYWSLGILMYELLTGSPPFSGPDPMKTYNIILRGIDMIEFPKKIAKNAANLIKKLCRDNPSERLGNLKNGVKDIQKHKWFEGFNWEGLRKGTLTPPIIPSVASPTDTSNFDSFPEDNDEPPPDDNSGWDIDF
Summary of the method: as §1

[31] = molecular target: EphA3(h) (Homo sapiens, UniProt P29320)
Sequence of EphA3(h) (P29320 21-983): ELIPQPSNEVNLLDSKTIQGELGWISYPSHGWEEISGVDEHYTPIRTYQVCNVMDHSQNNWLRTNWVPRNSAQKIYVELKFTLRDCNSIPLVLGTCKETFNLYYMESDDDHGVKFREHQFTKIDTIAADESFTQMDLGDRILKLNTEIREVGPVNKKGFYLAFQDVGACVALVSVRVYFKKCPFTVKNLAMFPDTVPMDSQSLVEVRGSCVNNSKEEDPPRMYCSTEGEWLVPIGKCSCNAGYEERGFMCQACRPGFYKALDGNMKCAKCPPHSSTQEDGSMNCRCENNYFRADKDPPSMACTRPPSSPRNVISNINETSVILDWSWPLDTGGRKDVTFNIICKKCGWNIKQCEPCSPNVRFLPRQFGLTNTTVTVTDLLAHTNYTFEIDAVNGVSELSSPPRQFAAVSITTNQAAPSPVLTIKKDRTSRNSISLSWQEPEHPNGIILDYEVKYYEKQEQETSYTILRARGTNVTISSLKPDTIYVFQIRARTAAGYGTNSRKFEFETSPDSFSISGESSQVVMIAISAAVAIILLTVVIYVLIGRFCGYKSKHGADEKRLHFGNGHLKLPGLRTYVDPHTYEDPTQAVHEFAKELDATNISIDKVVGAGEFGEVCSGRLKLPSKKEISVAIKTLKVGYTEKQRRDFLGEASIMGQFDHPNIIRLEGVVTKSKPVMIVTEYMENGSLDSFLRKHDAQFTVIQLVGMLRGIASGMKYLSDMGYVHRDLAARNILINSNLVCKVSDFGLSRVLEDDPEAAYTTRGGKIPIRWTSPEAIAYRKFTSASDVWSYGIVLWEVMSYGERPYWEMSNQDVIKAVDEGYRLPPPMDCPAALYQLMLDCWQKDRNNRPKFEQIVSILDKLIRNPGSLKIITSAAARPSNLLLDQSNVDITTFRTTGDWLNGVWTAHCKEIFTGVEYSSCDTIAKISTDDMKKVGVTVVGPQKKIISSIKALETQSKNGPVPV
Summary of the method: as §1

[32] = molecular target: Tec(h) activated (Homo sapiens, UniProt P42680)
Summary of the method: as §1

| Structure (SMILES) | inhibition at 0.1 µM [1] | inhibition at 0.1 µM [2] | inhibition at 0.1 µM [3] | inhibition at 0.1 µM [4] | inhibition at 0.1 µM [5] | inhibition at 0.1 µM [6] | inhibition at 0.1 µM [7] | inhibition at 0.1 µM [8] | inhibition at 0.1 µM [9] | inhibition at 0.1 µM [10] | inhibition at 0.1 µM [11] | inhibition at 0.1 µM [12] | inhibition at 0.1 µM [13] | inhibition at 0.1 µM [14] | inhibition at 0.1 µM [15] | inhibition at 0.1 µM [16] | inhibition at 0.1 µM [17] | inhibition at 0.1 µM [18] | inhibition at 0.1 µM [19] | inhibition at 0.1 µM [20] | other results |
| --- | --- | --- | --- | --- | --- | --- | --- | --- | --- | --- | --- | --- | --- | --- | --- | --- | --- | --- | --- | --- | --- |
| Cc1cc2c(F)c(Oc3nc(Nc4cc(C5CC5)[nH]n4)cc(N4CCN(C)CC4)n3)ccc2[nH]1 [Compound 10] | 5% | 16% | 9% | 80% | 99% | -1% | 90% | -11% | 36% | -2% | -7% | -8% | 3% | 12% | -14% | 8% | 78% | -7% | 90% | 25% | inhibition at 0.1 µM [21]: -14%; inhibition at 0.1 µM [22]: -9%; inhibition at 0.1 µM [23]: 14%; inhibition at 0.1 µM [24]: 52%; inhibition at 0.1 µM [25]: 33%; inhibition at 0.1 µM [26]: 22%; inhibition at 0.1 µM [27]: -10%; inhibition at 0.1 µM [28]: 67%; inhibition at 0.1 µM [29]: 20%; inhibition at 0.1 µM [30]: -25%; inhibition at 0.1 µM [31]: 47%; inhibition at 0.1 µM [32]: 46% |
| Cc1cc2c(F)c(Oc3nc(Nc4cc(C5CC5)[nH]n4)cc(N4CCNCC4)n3)ccc2[nH]1 [Compound 11, N-(5-cyclopropyl-1H-pyrazol-3-yl)-2-((4-fluoro-2-methyl-1H-indol-5-yl)oxy)-6-(piperazin-1-yl)pyrimidin-4-amine] | 3% | 14% | 5% | 76% | 102% | -1% | 84% | -11% | 35% | -28% | -14% | -13% | 11% | 5% | -9% | -4% | 62% | -5% | 88% | 36% | inhibition at 0.1 µM [21]: -17%; inhibition at 0.1 µM [22]: -10%; inhibition at 0.1 µM [23]: 1%; inhibition at 0.1 µM [24]: 47%; inhibition at 0.1 µM [25]: 39%; inhibition at 0.1 µM [26]: 22%; inhibition at 0.1 µM [27]: 9%; inhibition at 0.1 µM [28]: 64%; inhibition at 0.1 µM [29]: 78%; inhibition at 0.1 µM [30]: -5%; inhibition at 0.1 µM [31]: 56%; inhibition at 0.1 µM [32]: 20% |
